Source: patent US12275687B2 (priority 2017, dated 2025)

Assays:
[1] = target: BLT1-T4L; assay: Saturation binding of ^3H-LTB4, BLT1-T4L expressed in P. pastoris (membrane fraction); set-up: species or system guinea pig; conditions: saturation binding of ^3H-LTB4, ICL3-10 construct
Description: (§1) For the ligand binding assay of BLT1-T4Ls, the T4L cDNA was integrated into the cDNA, encoding the newly generated thermostable BLT1 mutant with the additional mutation V212A, by the consensus method (residues 1-14 deleted and H83G/K88G/V212A/S309A mutations), with the α-factor PrePro signal sequence and the FLAG tag at the N-terminal, and the PreScission site and the His6 tag at the C-terminal of BLT1 (Hori T. et al., 2010, supra) in the pPIC3.5K vector, using the In-Fusion enzyme (FIG. 7A). The expression vectors were introduced into the yeast Pichia pastoris using an EasyComp kit (Thermo Fisher Scientific). BLT1-T4Ls were expressed in 10 ml cultures, and the membrane fraction was prepared as described previously (Hori T. et al., 2010, supra; Hon T. et al., 2015, supra).
(§2) For the evaluation of the ligand-binding activity of the BLT1 mutants and BLT1-T4Ls, a ^3H-LTB4 binding assay was performed using the BLT1-expressing membrane fractions of COS-7, HEK293, or P. pastoris cells, as described previously (Hori T. et al., 2010, supra; Hori T. et al., 2015, supra). For the evaluation of the thermostability, the membrane fraction was heat-treated before the ^3H-LTB4 binding assay.

[2] = target: T1, BLT1 (Cavia porcellus, UniProt H0VYV8); assay: TGFα shedding assay with benzamidine (G-protein activation by LTB4); type: cell-based; set-up: expressed in transfected cells; conditions: for logτA: agonist signaling efficacy; for KA / logKA: equilibrium dissociation constant of LTB4; for logKA: log value as printed; for Em: maximum possible signal response
Procedure: Each point (±s.e.m.) indicates the mean value of three independent experiments, each with triplicate reactions. […] Each point (±s.e.m.) indicates the mean value of three independent experiments, each with triplicate reactions. […] Each point (±s.e.m.) indicates the mean value of triplicate reactions. […] To determine the parameters, three steps of fitting procedures were performed.

[3] = target: T1, BLT1; assay: Saturation binding assay of ^3H-LTB4 and BLT1 with various concentrations of benzamidine; set-up: expressed in transfected cells; host or cells: HEK293 (membrane fraction); species or system guinea pig; conditions: equilibrium dissociation constant of ^3H-LTB4, global fitting with benzamidine
Procedure: Each point (±s.e.m.) indicates the mean value of three independent experiments, each with triplicate reactions. […] Each point (±s.e.m.) indicates the mean value of three independent experiments, each with triplicate reactions. […] Each point (±s.e.m.) indicates the mean value of triplicate reactions. For the evaluation of the ligand-binding activity of the BLT1 mutants and BLT1-[…], a ^3H-LTB4 binding assay was performed using the BLT1-expressing membrane fractions of COS-7, HEK293, or P. pastoris cells, as described previously (Hori T. et al., 2010, supra; Hori T. et al., 2015, supra). For the evaluation of the thermostability, the membrane fraction was heat-treated before the ^3H-LTB4 binding assay.

[4] = target: BLT1-T4L; assay: Competition assay of ligands against ^3H-LTB4, BLT1-T4L expressed in P. pastoris; type: binding, guinea pig
Description: as §1, §2

[5] = target: T2, wild-type BLT1 (Cavia porcellus, UniProt H0VYV8); assay: Competition binding assay of benzamidine and NaCl to 0.5 nM ^3H-LTB4 (allosteric modulation titration analysis); set-up: species or system guinea pig
T2 construct: expressed in transfected cells; host or cells: HEK293 (membrane fraction)
Description: Each point (±s.e.m.) indicates the mean value of three independent experiments, each with triplicate reactions. […] Each point (±s.e.m.) indicates the mean value of three independent experiments, each with triplicate reactions. […] Each point (±s.e.m.) indicates the mean value of triplicate reactions. For the evaluation of the thermostabilities of guinea pig BLT1 mutants designed by the consensus method (FIG. 8A), point mutations were introduced using a QuikChange kit (Agilent) to the previously constructed thermostabilized BLT1 […] deleted, […] mutations, and an N-terminal FLAG-tag) in the pcDNA3 vector (Hori, T. et al., Protein Expr. Purif. 72 (2010) 66-74; Hori, T. et al., Biochem. Biophys. Rep. 4 (2015) 243-249). The expression vectors encoding the BLT1 mutants were transfected into COS-7 cells with Lipofectamine 2000. For the analysis of the BIIL260 binding residues of BLT1, point mutations were introduced, using the In-Fusion enzyme (Clontech), into the wild-type BLT1 cDNA with the N-terminal FLAG-tag in the pcDNA3 vector. The expression vectors were transfected into HEK293 cells, using polyethyleneimine. […] The BLT1 mutants were transiently expressed for three days at 37° C. The cells were washed with PBS, harvested with PBS-EDTA, disrupted with a sonicator, and centrifuged at 800×g for 5 min. The supernatant was further ultra-centrifuged at 100,000×g for 60 min, and the precipitate was collected. For the evaluation of the ligand-binding activity of the BLT1 mutants and BLT1-[…], a ^3H-LTB4 binding assay was performed using the BLT1-expressing membrane fractions of COS-7, HEK293, or P. pastoris cells, as described previously (Hori T. et al., 2010, supra; Hori T. et al., 2015, supra). For the evaluation of the thermostability, the membrane fraction was heat-treated before the ^3H-LTB4 binding assay. […] For all of the pharmacological analyses, nonlinear regression curve fitting was performed using Prism 5 (Graph Pad Software).

[6] = cooperative factor between ^3H-LTB4 and the modulator

T2 sequence (H0VYV8 1-348): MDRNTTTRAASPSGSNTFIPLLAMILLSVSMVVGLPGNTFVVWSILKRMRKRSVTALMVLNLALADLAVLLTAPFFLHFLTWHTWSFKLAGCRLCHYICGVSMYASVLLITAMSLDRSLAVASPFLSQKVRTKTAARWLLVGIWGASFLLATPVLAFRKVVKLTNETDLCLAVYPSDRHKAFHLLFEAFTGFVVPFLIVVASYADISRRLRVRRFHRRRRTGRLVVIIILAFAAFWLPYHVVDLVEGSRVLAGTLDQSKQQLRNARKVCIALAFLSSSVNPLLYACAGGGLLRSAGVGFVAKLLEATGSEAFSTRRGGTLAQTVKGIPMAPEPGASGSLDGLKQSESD
T1 sequence (H0VYV8 1-348): as above

CCCCC/C=C\C[C@@H](O)/C=C/C=C/C=C\[C@@H](O)CCCC(=O)O [LTB4, leukotriene B4]
Kd [1]: 1200 ± 100 pM
logτA ([2]; G16, Em = 20): 0.076
KA ([2]; G16): (KA = 9.2 nM)
logKA ([2]; G16): −8.0
Em ([2]; G16): 27.6
logτA ([2]; Gq/i1, in n = 1, Em = 25): 0.82
KA ([2]; Gq/i1): (KA = 24 nM)
logKA ([2]; Gq/i1): −7.6
Em ([2]; Gq/i1): 26.7
Kd [3]: 600 pM
Ki [4]: 670 pM
logIC50 ([4]; log value (negative)): −9.0

[Cl-].[Na+] [NaCl]
level of the LTB4-BLT1 binding ([5]; FIG. 3A): decreased in a sodium ion concentration-dependent manner
logα [5, 6]: −1.5
α [5, 6]: (α = 0.035)
